The supplement of paper PMC11208160

Assay: recombinant UMI read abundance after kanamycin selection (control-corrected) (log10(CPM+1)); higher = more efficient recombination; extreme values may be limits of the assay; sequences stand for … in AGTGCAGAGAAAATCGGCCAGTTTTCTCTGCCTGCAGTCCGCATGCCGTGGGACCCCTTGGGTTCTAACCTGTTGCCTAGATTTATGCAGCGGACTGCCTTTCTCCCAAAGTGATAAACCGG…AGGTTGGTTTCACT; site = the 11-nt donor
Protocol: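 Pooled E. coli donor-specificity screen for the IS621 bridge recombinase. Each library member carries a reprogrammed 11-nt donor and a full-length LE bridge RNA expressed in cis from the natural promoter, with a paired donor-binding loop (8-nt LDG + 4-nt RDG) and a target-binding loop fixed to T5. It is co-electroporated with a T5 target plasmid; recombinase is induced with 0.07 mM IPTG and recombinants are selected on kanamycin. UMIs are counted as CPM, averaged over two biological replicates and corrected by the unselected control. Molecule = full bridge RNA written as DNA, built from the T5 scaffold: LDG = donor specificity nt 1-8, RDG = reverse complement of nt 8-11.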
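Note: IS621 bridge recombinase in Escherichia coli cells against a fixed T5 target plasmid.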

| Sequence | recombinant UMI read abundance (log10) |
| --- | --- |
| TAGGCATCATGGACCGGTTTTCCCGGTAATCCGTATTTGCG (site TAGGGATCTCG) | 0.00568 |
| TACTTGACATGGACCGGTTTTCCCGGTAATCCGTATTTGCG (site TACTTGACTAG) | 0.00183 |
| GTCAAACCATGGACCGGTTTTCCCGGTAATCCGTATTTGGT (site GTCAAACCTAC) | 0 |
| TCGCCTACATGGACCGGTTTTCCCGGTAATCCGTATTTGTG (site TCGCCTACTCA) | 0.00919 |
| GTAGTATCATGGACCGGTTTTCCCGGTAATCCGTATTTGGC (site CTAGTATCTGT) | 0.582 |
| ATCCAGGCATGGACCGGTTTTCCCGGTAATCCGTATTTGCC (site ATCCAGGCTGG) | 0 |
| CAGACATCATGGACCGGTTTTCCCGGTAATCCGTATTTGCT (site CTGACATCTAG) | 1.42 |
| ATCTAGGCATGGACCGGTTTTCCCGGTAATCCGTATTTGGC (site ATTTAGGCTGC) | 0 |
| GTTGCGGCATGGACCGGTTTTCCCGGTAATCCGTATTTGCT (site GTTGCGGCTAG) | 1.49 |
| CACGTACCATGGACCGGTTTTCCCGGTAATCCGTATTTGCT (site CACGTACCTAG) | 0.0043 |
| CGTGAGTCATGGACCGGTTTTCCCGGTAATCCGTATTTGCC (site CGCGAGTCTGG) | 0 |
| GCGAAGCCATGGACCGGTTTTCCCGGTAATCCGTATTTGGT (site GCGAAGCCTGC) | 0 |
| CCCTAGCCATGGACCGGTTTTCCCGGTAATCCGTATTTGCC (site CCCTAGCCTAG) | 0.00741 |
| GTCGGTACATGGACCGGTTTTCCCGGTAATCCGTATTTGAC (site GTGGGTACTGT) | 0 |
| GTTATACCATGGACCGGTTTTCCCGGTAATCCGTATTTGCT (site GTTATACCTAG) | 0 |
| GTAGGTACATGGACCGGTTTTCCCGGTAATCCGTATTTGTC (site GTAGGTACTGG) | 1.97 |
| TGCGAGGCATGGACCGGTTTTCCCGGTAATCCGTATTTGGT (site TGCCAGGCTAC) | 0.0134 |
| ATCTGTACATGGACCGGTTTTCCCGGTAATCCGTATTTGAC (site ATCTTTACTGT) | 0 |
| GTTCGAGCATGGACCGGTTTTCCCGGTAATCCGTATTTGCA (site GTGCGAGCTTG) | 0.215 |
| AGGACTACATGGACCGGTTTTCCCGGTAATCCGTATTTGAC (site ACGACTACTGT) | 0.945 |
| GAGCTCACATGGACCGGTTTTCCCGGTAATCCGTATTTGAG (site GAGCTCACTCT) | 0.665 |
| GCCAAGCCATGGACCGGTTTTCCCGGTAATCCGTATTTGCC (site GCCAAGCCTGG) | 0 |
| GTCGTTACATGGACCGGTTTTCCCGGTAATCCGTATTTGGC (site GTCGTTACTGC) | 1.78 |
| GCTACTGCATGGACCGGTTTTCCCGGTAATCCGTATTTGCG (site GCTACTGCTCG) | 1.27 |

| Sequence | recombinant UMI read abundance (log10) |
| --- | --- |
| CCGTTTACATGGACCGGTTTTCCCGGTAATCCGTATTTGCT (site CCGCTTACTAG) | 0 |
| TACTTGACATGGACCGGTTTTCCCGGTAATCCGTATTTGCG (site TACTTGACTTG) | 0 |
| TGGAAGACATGGACCGGTTTTCCCGGTAATCCGTATTTGTA (site TGGAAGACTTA) | 2.36 |
| GCTACTGCATGGACCGGTTTTCCCGGTAATCCGTATTTGCG (site GCTACTGCTTG) | 1.35 |
| CCAGTATCATGGACCGGTTTTCCCGGTAATCCGTATTTGCC (site CTAGTATCTGT) | 0 |
| ACACGAACATGGACCGGTTTTCCCGGTAATCCGTATTTGTC (site ACGCGAACTGA) | 0 |
| GTTCGAGCATGGACCGGTTTTCCCGGTAATCCGTATTTGCA (site GATCGAGCTTG) | 0.258 |
| GTGTATGCATGGACCGGTTTTCCCGGTAATCCGTATTTGGT (site GTGAATGCTAC) | 0.483 |
| AGGTTCCCATGGACCGGTTTTCCCGGTAATCCGTATTTGTG (site AGGTTCGCTCA) | 0.0252 |
| CAACAACCATGGACCGGTTTTCCCGGTAATCCGTATTTGAA (site CAACAACCTTT) | 0.102 |
| ACAGTATCATGGACCGGTTTTCCCGGTAATCCGTATTTGCA (site ACAGCTTCTTG) | 0 |
| AACTCTACATGGACCGGTTTTCCCGGTAATCCGTATTTGAT (site AACTCTACTAT) | 0.82 |
| CCCTAGTCATGGACCGGTTTTCCCGGTAATCCGTATTTGCC (site CCCTAGTCTGG) | 1.23 |
| CGGACATCATGGACCGGTTTTCCCGGTAATCCGTATTTGTT (site CGGACATCTAG) | 0 |
| GACCGGGCATGGACCGGTTTTCCCGGTAATCCGTATTTGAT (site GACCGGGCTAT) | 0.662 |
| CTGTGAACATGGACCGGTTTTCCCGGTAATCCGTATTTGTT (site CTGTGAACTAA) | 1.15 |
| CTATTAACATGGACCGGTTTTCCCGGTAATCCGTATTTGGA (site CTAGTAACTTC) | 0.397 |
| ATTCGTGCATGGACCGGTTTTCCCGGTAATCCGTATTTGAT (site ATTCGTGCTAT) | 0.866 |
| AGCCACCCATGGACCGGTTTTCCCGGTAATCCGTATTTGTT (site AGCCACCCTAA) | 0.0153 |
| CAAGTCACATGGACCGGTTTTCCCGGTAATCCGTATTTGGG (site AAAGTCACTCC) | 0.0232 |
| GTTCGAACATGGACCGGTTTTCCCGGTAATCCGTATTTGGC (site GTTTGAACTGC) | 0 |
| CCCTAGTCATGGACCGGTTTTCCCGGTAATCCGTATTTGCC (site CCCTAGCCTGG) | 0 |
| ATAGTCGCATGGACCGGTTTTCCCGGTAATCCGTATTTGCG (site TTAGTCGCTCG) | 0.00819 |
| CGTCGACCATGGACCGGTTTTCCCGGTAATCCGTATTTGAT (site CGTCGACCTAT) | 0.0862 |

| Sequence | recombinant UMI read abundance (log10) |
| --- | --- |
| ACAGTATCATGGACCGGTTTTCCCGGTAATCCGTATTTGCA (site CCAGTATCTTT) | 0.00394 |
| TGCAAGGCATGGACCGGTTTTCCCGGTAATCCGTATTTGGT (site TGCAAGGCTAC) | 0.43 |
| GTAGTCGCATGGACCGGTTTTCCCGGTAATCCGTATTTGCG (site GTAGTCGCTCG) | 1.61 |
| TAGCTCACATGGACCGGTTTTCCCGGTAATCCGTATTTGAT (site GAGCTCACTAT) | 0.0104 |
| AAAGTCACATGGACCGGTTTTCCCGGTAATCCGTATTTGGG (site GAAGTCACTCC) | 0.00503 |
| GCGGCACCATGGACCGGTTTTCCCGGTAATCCGTATTTGCA (site GCGGCACCTTG) | 0 |
| AGAGATCCATGGACCGGTTTTCCCGGTAATCCGTATTTGAA (site AGAGATCCTTT) | 2.01 |
| CTGCTTCCATGGACCGGTTTTCCCGGTAATCCGTATTTGCT (site CTGCTTCCTAG) | 1.73 |
| AGCGCAGCATGGACCGGTTTTCCCGGTAATCCGTATTTGGG (site AGCGCAGCTCC) | 0.0103 |
| ATGATCCCATGGACCGGTTTTCCCGGTAATCCGTATTTGCC (site ATGATCCCTGG) | 0 |
| AACCGTCCATGGACCGGTTTTCCCGGTAATCCGTATTTGTT (site AACCGTCCTAA) | 0.00892 |
| CATCTCTCATGGACCGGTTTTCCCGGTAATCCGTATTTGTA (site CATCTCTCTTA) | 2.66 |
| CAATTCCCATGGACCGGTTTTCCCGGTAATCCGTATTTGGT (site CAATTCCCTAT) | 0.681 |
| CTAGTTTCATGGACCGGTTTTCCCGGTAATCCGTATTTGCC (site CTAGTTTCTGG) | 2.53 |
| AGCCAGACATGGACCGGTTTTCCCGGTAATCCGTATTTGCA (site AGGAAGACTTG) | 0 |
| ATTAGAACATGGACCGGTTTTCCCGGTAATCCGTATTTGGC (site TTTAGAACTGC) | 1.19 |
| CTTCTCACATGGACCGGTTTTCCCGGTAATCCGTATTTGTA (site CTTCTCCCTTA) | 0.00809 |
| GTATGCACATGGACCGGTTTTCCCGGTAATCCGTATTTGGA (site GTATGCACTTG) | 0.783 |
| GGATATACATGGACCGGTTTTCCCGGTAATCCGTATTTGCC (site GGATAGACTGG) | 0.756 |
| AATGTGTCATGGACCGGTTTTCCCGGTAATCCGTATTTGTC (site AATGTGTCTGT) | 0.364 |
| GATTATCCATGGACCGGTTTTCCCGGTAATCCGTATTTGCT (site GATTATCCTAT) | 0.0146 |
| ACAGTCTCATGGACCGGTTTTCCCGGTAATCCGTATTTGCA (site ACAGTGTCTTG) | 2.28 |
| AGCTCGGCATGGACCGGTTTTCCCGGTAATCCGTATTTGGG (site AGCTCTGCTCC) | 0 |
| TCCGCGACATGGACCGGTTTTCCCGGTAATCCGTATTTGTA (site TCCGCGACTTA) | 0.0159 |
